Measurements taken from ChEMBL document CHEMBL1201862, “PubChem BioAssay data set” (2004).
The source made the active and inactive calls. For most assays here, no stated cut-off is given here; in the data, active = EC50 of 10 µM or less and inactive = more.

What was measured:
[1] = target: Peroxisome proliferator-activated receptor gamma/Nuclear receptor coactivator 3 (Homo sapiens, UniProt P37231); test: (§1) TR-FRET dose response biochemical High Throughput Screening assay for agonists of the steroid receptor coactivator 3 (SRC-3) recruitment by the peroxisome proliferator-activated receptor gamma (PPAR gamma): non-selective agonists. [Related pubchem assays: 1301 (Confirmation screen.), 1048 (Primary screen.)]; format: functional
[2] = target: Peroxisome proliferator-activated receptor gamma/Nuclear receptor coactivator 1 (Homo sapiens, UniProt P37231); test: as §1, with “1 (SRC-1)” for “3 (SRC-3)”, “assays (depositor defined):AID1300, AID1808, AID504735, AID631]” for “assays: 1301 (Confirmation screen.), 1048 (Primary screen.)]”; format: protein assay
[3] = target: Peroxisome proliferator-activated receptor gamma/Nuclear receptor coactivator 2 (Homo sapiens, UniProt P37231); test: TR-FRET dose response biochemical High Throughput Screening assay for agonists of the steroid receptor coactivator 2 (SRC-2) recruitment by the peroxisome proliferator-activated receptor gamma (PPAR gamma): non-selective agonists. [Related pubchem assays: 1297, 1032 ]; format: functional
[4] = target: T1, Rac GTPase-activating protein 1 (Homo sapiens, UniProt Q9H0H5); test: blockers of MgcRacGAP-driven Rac1 GTP hydrolysis – biochemical, ADP Hunter fluorescence, primary and confirmatory, confirmation (AID 624330); format: functional
T1 sequence (Q9H0H5 whole entry): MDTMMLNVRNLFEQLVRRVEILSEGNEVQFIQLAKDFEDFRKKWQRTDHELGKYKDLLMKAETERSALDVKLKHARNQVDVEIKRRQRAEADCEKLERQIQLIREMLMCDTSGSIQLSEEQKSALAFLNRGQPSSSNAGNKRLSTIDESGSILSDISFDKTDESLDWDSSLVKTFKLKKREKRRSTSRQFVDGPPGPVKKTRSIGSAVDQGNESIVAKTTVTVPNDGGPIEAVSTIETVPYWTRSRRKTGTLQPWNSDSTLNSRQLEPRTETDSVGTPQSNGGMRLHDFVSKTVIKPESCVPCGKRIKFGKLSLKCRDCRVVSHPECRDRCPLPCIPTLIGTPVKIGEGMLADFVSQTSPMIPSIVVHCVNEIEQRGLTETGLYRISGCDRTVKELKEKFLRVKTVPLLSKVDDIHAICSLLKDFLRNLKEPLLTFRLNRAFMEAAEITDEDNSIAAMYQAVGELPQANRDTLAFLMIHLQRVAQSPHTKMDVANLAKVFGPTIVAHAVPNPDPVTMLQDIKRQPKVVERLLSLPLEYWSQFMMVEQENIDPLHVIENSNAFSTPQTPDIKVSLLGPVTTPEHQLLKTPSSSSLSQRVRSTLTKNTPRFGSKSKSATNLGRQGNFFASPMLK

Sequence of Peroxisome proliferator-activated receptor gamma/Nuclear receptor coactivator 1 (P37231 whole entry): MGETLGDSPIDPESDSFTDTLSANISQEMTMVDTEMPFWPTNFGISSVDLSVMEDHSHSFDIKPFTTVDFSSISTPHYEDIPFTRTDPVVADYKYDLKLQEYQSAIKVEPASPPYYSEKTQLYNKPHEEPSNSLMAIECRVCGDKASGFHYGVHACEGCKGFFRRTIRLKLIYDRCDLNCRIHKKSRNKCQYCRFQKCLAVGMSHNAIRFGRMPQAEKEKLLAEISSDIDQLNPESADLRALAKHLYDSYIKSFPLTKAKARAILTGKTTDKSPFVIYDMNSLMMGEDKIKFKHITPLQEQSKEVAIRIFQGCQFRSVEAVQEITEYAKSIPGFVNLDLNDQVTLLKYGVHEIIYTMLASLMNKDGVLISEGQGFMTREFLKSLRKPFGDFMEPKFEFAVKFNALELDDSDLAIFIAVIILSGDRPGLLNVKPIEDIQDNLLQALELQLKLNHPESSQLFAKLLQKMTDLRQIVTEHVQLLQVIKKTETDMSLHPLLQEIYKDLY
Sequence of Peroxisome proliferator-activated receptor gamma/Nuclear receptor coactivator 1 (Q15788 whole entry, further chain): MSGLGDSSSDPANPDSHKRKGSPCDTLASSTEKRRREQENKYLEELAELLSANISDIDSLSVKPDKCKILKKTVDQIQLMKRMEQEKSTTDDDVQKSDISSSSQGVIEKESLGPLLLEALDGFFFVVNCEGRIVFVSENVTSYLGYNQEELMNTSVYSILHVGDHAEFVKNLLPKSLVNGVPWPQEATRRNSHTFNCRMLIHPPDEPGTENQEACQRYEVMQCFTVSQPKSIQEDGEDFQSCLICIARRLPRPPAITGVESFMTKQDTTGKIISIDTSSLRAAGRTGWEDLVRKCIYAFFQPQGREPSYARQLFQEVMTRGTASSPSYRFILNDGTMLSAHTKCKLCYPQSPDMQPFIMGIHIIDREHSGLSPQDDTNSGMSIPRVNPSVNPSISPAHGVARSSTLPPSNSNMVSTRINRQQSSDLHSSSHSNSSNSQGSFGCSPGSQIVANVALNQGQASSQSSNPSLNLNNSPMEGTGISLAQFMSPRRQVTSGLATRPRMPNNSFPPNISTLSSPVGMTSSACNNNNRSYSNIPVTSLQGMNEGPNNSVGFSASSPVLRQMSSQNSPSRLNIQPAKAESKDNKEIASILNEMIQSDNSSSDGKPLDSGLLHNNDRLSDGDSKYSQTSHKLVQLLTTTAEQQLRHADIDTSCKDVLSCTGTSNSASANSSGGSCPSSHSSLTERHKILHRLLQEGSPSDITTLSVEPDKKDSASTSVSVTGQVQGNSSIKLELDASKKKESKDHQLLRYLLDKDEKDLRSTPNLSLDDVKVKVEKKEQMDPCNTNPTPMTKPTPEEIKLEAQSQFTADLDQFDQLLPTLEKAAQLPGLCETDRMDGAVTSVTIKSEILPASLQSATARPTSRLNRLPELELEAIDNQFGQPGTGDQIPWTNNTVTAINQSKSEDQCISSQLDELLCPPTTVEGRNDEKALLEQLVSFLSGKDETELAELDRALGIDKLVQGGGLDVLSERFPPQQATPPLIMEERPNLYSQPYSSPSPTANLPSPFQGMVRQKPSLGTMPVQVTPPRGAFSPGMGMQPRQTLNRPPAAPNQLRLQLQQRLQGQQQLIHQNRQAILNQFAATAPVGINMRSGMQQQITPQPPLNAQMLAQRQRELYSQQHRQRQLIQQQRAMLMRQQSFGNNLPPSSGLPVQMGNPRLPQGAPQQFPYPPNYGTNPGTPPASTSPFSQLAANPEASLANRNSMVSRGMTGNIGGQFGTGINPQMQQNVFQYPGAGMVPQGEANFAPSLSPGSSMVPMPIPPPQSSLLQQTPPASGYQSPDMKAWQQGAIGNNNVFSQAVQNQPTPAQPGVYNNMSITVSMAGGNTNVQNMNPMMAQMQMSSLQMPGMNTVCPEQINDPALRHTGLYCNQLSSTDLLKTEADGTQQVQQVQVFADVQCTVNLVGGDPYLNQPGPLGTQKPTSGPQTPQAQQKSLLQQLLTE
Sequence of Peroxisome proliferator-activated receptor gamma/Nuclear receptor coactivator 3 (P37231 whole entry): as the sequence (P37231 whole entry) above
Sequence of Peroxisome proliferator-activated receptor gamma/Nuclear receptor coactivator 3 (Q9Y6Q9 whole entry, further chain): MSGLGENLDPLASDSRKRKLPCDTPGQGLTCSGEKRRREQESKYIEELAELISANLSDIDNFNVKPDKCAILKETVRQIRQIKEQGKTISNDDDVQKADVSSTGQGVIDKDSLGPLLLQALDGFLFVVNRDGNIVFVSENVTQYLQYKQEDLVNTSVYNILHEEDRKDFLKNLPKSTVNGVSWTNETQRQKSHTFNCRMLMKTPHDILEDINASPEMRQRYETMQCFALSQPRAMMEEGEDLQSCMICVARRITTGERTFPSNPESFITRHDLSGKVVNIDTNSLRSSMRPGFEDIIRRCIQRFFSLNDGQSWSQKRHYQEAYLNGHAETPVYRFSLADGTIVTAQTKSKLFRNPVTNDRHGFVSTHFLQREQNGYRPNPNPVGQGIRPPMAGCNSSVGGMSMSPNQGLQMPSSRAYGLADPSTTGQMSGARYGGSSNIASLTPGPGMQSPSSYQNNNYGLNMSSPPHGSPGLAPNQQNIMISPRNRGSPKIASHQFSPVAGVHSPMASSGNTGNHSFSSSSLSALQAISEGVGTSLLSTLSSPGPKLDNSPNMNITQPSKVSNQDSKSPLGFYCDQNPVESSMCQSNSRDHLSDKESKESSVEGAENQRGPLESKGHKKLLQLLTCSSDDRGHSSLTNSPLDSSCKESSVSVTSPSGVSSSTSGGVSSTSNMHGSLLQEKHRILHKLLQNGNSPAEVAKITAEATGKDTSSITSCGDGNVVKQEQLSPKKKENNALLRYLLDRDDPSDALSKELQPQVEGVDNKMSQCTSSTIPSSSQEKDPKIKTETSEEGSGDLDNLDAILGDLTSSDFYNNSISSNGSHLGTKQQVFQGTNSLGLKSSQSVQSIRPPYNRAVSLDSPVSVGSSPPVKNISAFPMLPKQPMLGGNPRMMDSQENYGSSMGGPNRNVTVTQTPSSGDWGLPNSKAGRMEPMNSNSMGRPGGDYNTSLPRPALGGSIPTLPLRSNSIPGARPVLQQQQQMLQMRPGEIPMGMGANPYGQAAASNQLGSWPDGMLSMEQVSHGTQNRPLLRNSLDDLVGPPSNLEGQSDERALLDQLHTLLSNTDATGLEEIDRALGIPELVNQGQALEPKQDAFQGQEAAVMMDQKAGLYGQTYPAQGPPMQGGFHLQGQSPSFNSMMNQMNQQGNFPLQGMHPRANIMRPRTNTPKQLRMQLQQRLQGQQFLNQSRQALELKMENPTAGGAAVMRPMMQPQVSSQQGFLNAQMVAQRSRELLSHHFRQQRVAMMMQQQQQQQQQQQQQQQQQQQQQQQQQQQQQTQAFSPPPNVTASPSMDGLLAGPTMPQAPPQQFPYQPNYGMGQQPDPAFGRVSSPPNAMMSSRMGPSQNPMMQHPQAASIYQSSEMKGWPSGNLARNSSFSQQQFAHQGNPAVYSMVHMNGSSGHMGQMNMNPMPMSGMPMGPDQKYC

Row | EC50 [1] | EC50 [2] | EC50 [3] | IC50 [4] | Structure (SMILES)
1 | > 79.4 µM (not active) | 22.6 µM (inactive) | 11.5 µM (not active) |  | O=C(CSc1ncnc2c1oc1ccccc12)NCc1ccco1
2 | 91.1 µM (not active) | 63.3 µM (inactive) | 59.2 µM (not active) |  | O=C(CSc1ncnc2c1oc1ccccc12)Nc1ccccc1F
3 | > 79.4 µM (not active) | 49 µM (inactive) | 30.5 µM (not active) | 14.5 µM (active) | Clc1cccc(-c2ccc(/C=N/c3ccc(N4CCOCC4)cc3)o2)c1Cl
